Measurements taken from US20070264199A1, “Magnetic nanoparticle composition and methods for using the same” (priority 2005, published 2007).
Where two headings read alike, the source gives them in different places.

What was measured:
[1] = Drug loading in magnetic nanoparticles; format: physicochemical; conditions: for Total Drug Loading (Mean ± SEM): total drug added 10.0 % w/w, n = 2 or 3
Procedure: For incorporation in nanoparticles, hydrochloride salt of the drug (DOX.HCl) was converted to water-insoluble base (DOX) using established methods (Yolles, et al. (1978) Acta Pharm. Suec. 15:382-388). […] Stirring was continued overnight (˜16 hours) to allow partitioning of the drug into the oleic acid shell surrounding iron-oxide nanoparticles. Drug-loaded nanoparticles were separated from the unentrapped drug using a magnet (12200 Gauss; Edmund Scientific, Tonawanda, N.Y.). Nanoparticles were washed twice by re-suspending in distilled water and separated using a magnetic field. […] For drug extraction, 2 mL of 12.5% volume/volume methanolic solution in chloroform was added to the dried sample. The samples were shaken for 24 hours (Environ shaker, model no. 3527; Lab-Line Instruments, Melrose Park, Ill.). Since DOX has greater solubility in this combination of solvents than in methanol or chloroform alone, it was used for the extraction. Nanoparticles were centrifuged for 10 minutes at 16,000 g using an EPPENDORF® microcentrifuge (5417R; Eppendorf-Netheler-Hinz-GmbH, Hamburg, Germany). […] VARIAN® Inc., Walnut Creek, Calif.) at λex=485 nm and λem=591 nm. A standard plot was prepared under identical conditions to calculate the amount of drug loaded in the nanoparticles. There was no further increase in the amount of drug extracted when nanoparticles were kept for extraction for more than 24 hours. […] The cap was removed and ethanol was allowed to evaporate overnight. Magnetite nanoparticles were separated from the free drug using a magnetic field and particles were washed two times with distilled water.

[2] = Antiproliferative IC50 of paclitaxel, doxorubicin and combination, in solution or in magnetic nanoparticles
MCF-7 cells = assay: Confocal laser scanning microscopy of drug uptake and localization; format: cell-based; conditions: 2 hours of incubation
Procedure: MCF-7 cells were seeded in Bioptechs plates (Bioptechs, Butler, Pa.) at 50,000 cells/plate in 1 mL serum-containing medium 24 hours prior to the experiment. A dispersion of drug-loaded or void nanoparticles and drug solution (10 μM) were prepared in cell-culture medium as described herein. […] Cells were washed three times with PBS before imaging them under a confocal microscope (Zeiss Confocal microscope LSM410 equipped with argon-krypton laser; Zeiss, Thornwood, N.Y.) at λex=488 nm and a long-pass filter with a cut-on filter of 515 nm for detecting the emission light.

Paclitaxel Loaded ([1]; added paclitaxel 5.0 % w/w + doxorubicin 5.0 % w/w) [% w/w] | Paclitaxel Loaded ([1]; added paclitaxel 10.0 % w/w, doxorubicin 0.0) [% w/w] | Total Drug Loading (Mean ± SEM) [1] [% w/w] | Doxorubicin Loaded ([1]; added doxorubicin 5.0 % w/w + paclitaxel 5.0 % w/w) [% w/w] | Doxorubicin Loaded ([1]; added doxorubicin 10.0 % w/w, paclitaxel 0.0) [% w/w] | SMILES | IC50 ([2]; read-out: IC50 Nanoparticle) [µg/mL] | IC50 ([2]; read-out: IC50 Soluble) [µg/mL] | intracellular localization of drug (MCF-7 cells)
4.8 | 9.5 | 9.5 |  |  | CC(=O)O[C@H]1C(=O)[C@@]2(C)[C@H]([C@H](OC(=O)c3ccccc3)[C@]3(O)C[C@H](OC(=O)[C@H](O)[C@@H](NC(=O)c4ccccc4)c4ccccc4)C(C)=C1C3(C)C)[C@]1(OC(C)=O)CO[C@@H]1C[C@@H]2O [Paclitaxel] | 0.0106 ± 0.0006 | 0.0098 ± 0.0005 | 
 |  | 8.2 | 3.7 | 8.2 | COc1cccc2c1C(=O)c1c(O)c3c(c(O)c1C2=O)C[C@@](O)(C(=O)CO)C[C@@H]3O[C@H]1C[C@H](N)[C@H](O)[C@H](C)O1 [Doxorubicin] | 0.795 ± 0.177 | 0.103 ± 0.0178 | nuclear localization
